According to patent publication US20240123079A1 (Seagen Inc., priority 2021, published 2024):

System: THP1-Dual™ reporter cells
Experiment: THP1-Dual cell reporter assay (IRF-Lucia luciferase reporter)
Format: cell-based, human
Details: ADCs: drug linker conjugated to a targeted mAb, 48 h
Experimental: THP1-Dual™ Cell Reporter Assay
Potency of compounds and ADCs was evaluated using the THP1-Dual™ cells (InvivoGen PN: thpd-nfis [also referred to as THP1 dual reporter cells]), which contain an IRF-Lucia luciferase reporter. Cells were cultured in RPMI-1640 (Gibco) with 10% heat-inactivated fetal bovine serum, Pen-Strep (100 U/mL-100 μg/mL, Gibco), HEPES (10 mM, Gibco)), sodium pyruvate (1 mM, Gibco), MEM non-essential amino acids (1×, Gibco), GlutaMAX (1×, Gibco), and beta-mercaptoethanol (55 μM, Gibco). Cells were plated in a 96-well flat bottom tissue culture-treated clear polystyrene plate (Corning Costar #3596) at ˜100,000 cells per well in 200 μL with the indicated concentration of the compound or ADC. The supernatant was harvested at 24 hours (compounds) or 48 hours (ADC) post plating for the reporter assay, or as indicated. To measure Lucia reporter signal, 10 μL of the supernatant was combined with 40 μL of QUANTI-Luc™ Luminescence assay reagent (Invivogen PN: rep-qlc1) in a 96-well clear flat bottom tissue culture-treated black polystyrene plate (Corning Costar #3603) and read on a Perkin Elmer Envision plate reader.
STING agonist compounds were assessed for their ability to activate THP1-Dual™ reporter cells, a human monocytic cell line in which type I interferon (IRF) signaling can be monitored via a secreted luciferase reporter protein (Lucia). THP1-Dual™ cells were treated with increasing concentrations of the agonists for 24h, then supernatants were harvested and the Lucia reporter signal was quantified using QUANTI-Luc™ Luminescence assay reagent.

Compound | EC50 (ng/mL) | EC50 [µg/mL]
CCn1nc(C)cc1C(=O)Nc1nc2cc(C(N)=O)cc(OC)c2n1C/C=C/Cn1c(NC(=O)c2cccnn2)nc2cc(C(N)=O)cc(OCCCN(C)C(=O)CCN3C(=O)C=CC3=O)c21 [Compound 96] | >10,000 ng/mL | 
CCn1nc(C)cc1C(=O)Nc1nc2cc(C(N)=O)cc(OC)c2n1C/C=C/Cn1c(NC(=O)c2ccnnc2)nc2cc(C(N)=O)cc(OCCCN(C)C(=O)CCN3C(=O)C=CC3=O)c21 [Compound 98] | >10,000 ng/mL | 
CCn1nc(C)cc1C(=O)Nc1nc2cc(C(N)=O)cc(OC)c2n1C/C=C/Cn1c(NC(=O)c2ncccn2)nc2cc(C(N)=O)cc(OCCCN(C)C(=O)CCN3C(=O)C=CC3=O)c21 [Compound 101] | >10,000 ng/mL | 
CCn1cc(C(=O)Nc2nc3cc(C(N)=O)cc(OCCCN(C)C(=O)CCN4C(=O)C=CC4=O)c3n2C/C=C/Cn2c(NC(=O)c3cc(C)nn3CC)nc3cc(C(N)=O)cc(OC)c32)c(C)n1 [Compound 102] | >10,000 ng/mL | 
CCn1cc(C)nc1C(=O)Nc1nc2cc(C(N)=O)cc(OCCCN(C)C(=O)CCN3C(=O)C=CC3=O)c2n1C/C=C/Cn1c(NC(=O)c2cc(C)nn2CC)nc2cc(C(N)=O)cc(OC)c21 [Compound 103] | >10,000 ng/mL | 
CCc1cc(C(=O)Nc2nc3cc(C(N)=O)cc(OCCCN(C)C(=O)CCN4C(=O)C=CC4=O)c3n2C/C=C/Cn2c(NC(=O)c3cc(C)nn3CC)nc3cc(C(N)=O)cc(OC)c32)n(C)n1 [Compound 104] | >10,000 ng/mL | 
CCn1nc(C)cc1C(=O)Nc1nc2cc(C(N)=O)cc(OC)c2n1C/C=C/Cn1c(NC(=O)c2cc(C)nn2C)nc2cc(C(N)=O)cc(OCCCN(C)C(=O)CCN3C(=O)C=CC3=O)c21 [Compound 105] |  | 0.0525
CCc1oc(C)cc1C(=O)Nc1nc2cc(C(N)=O)cc(OCCCN(C)C(=O)CCN3C(=O)C=CC3=O)c2n1C/C=C/Cn1c(NC(=O)c2cc(C)nn2CC)nc2cc(C(N)=O)cc(OC)c21 [Compound 106] | >10,000 ng/mL | 
CCn1nc(C)cc1C(=O)Nc1nc2cc(C(N)=O)cc(OC)c2n1C/C=C/Cn1c(NC(=O)c2cc(C)sn2)nc2cc(C(N)=O)cc(OCCCN(C)C(=O)CCN3C(=O)C=CC3=O)c21 [Compound 107] | >10,000 ng/mL | 
CCn1nc(C)cc1C(=O)Nc1nc2cc(C(N)=O)cc(OC)c2n1C/C=C/Cn1c(NC(=O)c2ccnn2CC)nc2cc(C(N)=O)cc(OCCCN(C)C(=O)CCN3C(=O)C=CC3=O)c21 [Compound 108] |  | 0.0635
CCn1nc(C)cc1C(=O)Nc1nc2cc(C(N)=O)cc(OC)c2n1C/C=C/Cn1c(NC(=O)c2cc(C(F)(F)F)nn2CC)nc2cc(C(N)=O)cc(OCCCN(C)C(=O)CCN3C(=O)C=CC3=O)c21 [Compound 109] | >10,000 ng/mL | 
CCn1nc(C)cc1C(=O)Nc1nc2cc(C(N)=O)cc(OC)c2n1C/C=C/Cn1c(NC(=O)c2c(C)cnn2C)nc2cc(C(N)=O)cc(OCCCN(C)C(=O)CCN3C(=O)C=CC3=O)c21 [Compound 110] | >10,000 ng/mL | 
CCc1nc(C)sc1C(=O)Nc1nc2cc(C(N)=O)cc(OCCCN(C)C(=O)CCN3C(=O)C=CC3=O)c2n1C/C=C/Cn1c(NC(=O)c2cc(C)nn2CC)nc2cc(C(N)=O)cc(OC)c21 [Compound 111] |  | 0.0132
CCc1nc(C)oc1C(=O)Nc1nc2cc(C(N)=O)cc(OCCCN(C)C(=O)CCN3C(=O)C=CC3=O)c2n1C/C=C/Cn1c(NC(=O)c2cc(C)nn2CC)nc2cc(C(N)=O)cc(OC)c21 [Compound 112] |  | 0.002

Same assay, conditions: Homo sapiens, THP1-Dual; free compounds, 24 h, Lucia reporter signal; read-out: EC50

EC50 [nM] | Compound
> 10000 | CCn1nc(C)cc1C(=O)Nc1nc2cc(C(N)=O)cc(OC)c2n1C/C=C/Cn1c(NC(=O)c2cccnn2)nc2cc(C(N)=O)cc(OCCCNC)c21 [Compound 79]
> 10000 | CCn1nc(C)cc1C(=O)Nc1nc2cc(C(N)=O)cc(OC)c2n1C/C=C/Cn1c(NC(=O)c2ccnnc2)nc2cc(C(N)=O)cc(OCCCNC)c21 [Compound 80]
> 10000 | CCn1nc(C)cc1C(=O)Nc1nc2cc(C(N)=O)cc(OC)c2n1C/C=C/Cn1c(NC(=O)c2cc(C)on2)nc2cc(C(N)=O)cc(OCCCNC)c21 [Compound 81]
> 10000 | CCn1nc(C)cc1C(=O)Nc1nc2cc(C(N)=O)cc(OC)c2n1C/C=C/Cn1c(NC(=O)c2cc(C)no2)nc2cc(C(N)=O)cc(OCCCNC)c21 [Compound 82]
> 10000 | CCn1nc(C)cc1C(=O)Nc1nc2cc(C(N)=O)cc(OC)c2n1C/C=C/Cn1c(NC(=O)c2cc(C)ns2)nc2cc(C(N)=O)cc(OCCCNC)c21 [Compound 83]
> 10000 | CCn1nc(C)cc1C(=O)Nc1nc2cc(C(N)=O)cc(OC)c2n1C/C=C/Cn1c(NC(=O)c2ncccn2)nc2cc(C(N)=O)cc(OCCCNC)c21 [Compound 84]
> 10000 | CCn1cc(C(=O)Nc2nc3cc(C(N)=O)cc(OCCCNC)c3n2C/C=C/Cn2c(NC(=O)c3cc(C)nn3CC)nc3cc(C(N)=O)cc(OC)c32)c(C)n1 [Compound 85]
2460 | CCn1cc(C)nc1C(=O)Nc1nc2cc(C(N)=O)cc(OCCCNC)c2n1C/C=C/Cn1c(NC(=O)c2cc(C)nn2CC)nc2cc(C(N)=O)cc(OC)c21 [Compound 86]
> 10000 | CCc1cc(C(=O)Nc2nc3cc(C(N)=O)cc(OCCCNC)c3n2C/C=C/Cn2c(NC(=O)c3cc(C)nn3CC)nc3cc(C(N)=O)cc(OC)c32)n(C)n1 [Compound 87]
394 | CCn1nc(C)cc1C(=O)Nc1nc2cc(C(N)=O)cc(OC)c2n1C/C=C/Cn1c(NC(=O)c2cc(C)nn2C)nc2cc(C(N)=O)cc(OCCCNC)c21 [Compound 88]
1320 | CCc1oc(C)cc1C(=O)Nc1nc2cc(C(N)=O)cc(OCCCNC)c2n1C/C=C/Cn1c(NC(=O)c2cc(C)nn2CC)nc2cc(C(N)=O)cc(OC)c21 [Compound 89]
> 10000 | CCn1nc(C)cc1C(=O)Nc1nc2cc(C(N)=O)cc(OC)c2n1C/C=C/Cn1c(NC(=O)c2cc(C)sn2)nc2cc(C(N)=O)cc(OCCCNC)c21 [Compound 90]
350 | CCn1nc(C)cc1C(=O)Nc1nc2cc(C(N)=O)cc(OC)c2n1C/C=C/Cn1c(NC(=O)c2ccnn2CC)nc2cc(C(N)=O)cc(OCCCNC)c21 [Compound 91]
1190 | CCn1nc(C)cc1C(=O)Nc1nc2cc(C(N)=O)cc(OC)c2n1C/C=C/Cn1c(NC(=O)c2cc(C(F)(F)F)nn2CC)nc2cc(C(N)=O)cc(OCCCNC)c21 [Compound 92]
> 10000 | CCn1nc(C)cc1C(=O)Nc1nc2cc(C(N)=O)cc(OC)c2n1C/C=C/Cn1c(NC(=O)c2c(C)cnn2C)nc2cc(C(N)=O)cc(OCCCNC)c21 [Compound 93]
133 | CCc1nc(C)sc1C(=O)Nc1nc2cc(C(N)=O)cc(OCCCNC)c2n1C/C=C/Cn1c(NC(=O)c2cc(C)nn2CC)nc2cc(C(N)=O)cc(OC)c21 [Compound 94]
12.9 | CCc1nc(C)oc1C(=O)Nc1nc2cc(C(N)=O)cc(OCCCNC)c2n1C/C=C/Cn1c(NC(=O)c2cc(C)nn2CC)nc2cc(C(N)=O)cc(OC)c21 [Compound 95]
9.4 | CCn1nc(C)cc1C(=O)Nc1nc2cc(C(N)=O)cc(OC)c2n1C/C=C/Cn1c(NC(=O)c2cc(C)nn2CC)nc2cc(C(N)=O)cc(OCCCN(C)C(=O)[C@@H](N)CC(C)C)c21 [Compound 114]
17.4 | CC[C@H](C)[C@H](N)C(=O)N(C)CCCOc1cc(C(N)=O)cc2nc(NC(=O)c3cc(C)nn3CC)n(C/C=C/Cn3c(NC(=O)c4cc(C)nn4CC)nc4cc(C(N)=O)cc(OC)c43)c12 [Compound 115]
11.6 | CCn1nc(C)cc1C(=O)Nc1nc2cc(C(N)=O)cc(OC)c2n1C/C=C/Cn1c(NC(=O)c2cc(C)nn2CC)nc2cc(C(N)=O)cc(OCCCN(C)C(=O)[C@@H](N)Cc3ccccc3)c21 [Compound 116]
